Laboratory results from US20030187049A1, “Compositions based on aminoacids, suitable for improving muscle performance” (priority 2003, published 2003).

Test system: athletes
Assay: comparative study of amino acids mixture, creatine and placebo in athletes: bench press, squat, braked bicycle ergometer
Assay type: in vivo, humans
Text: The effects on energy balance of the an amino acids mixture according to the invention as above indicated were the subject of a comparative study with creatine, on a weight ratio (w/w), or with no treatment, on a large group of volunteers submitted to a rigid protocol of alimentation and training. […] In some athletes, also heart frequency rate and VO2 max were registered while performing a treadmill test, before arid at the end of this study.

[1] = after one month of treatment and training, mixture 24 g/d, creatine 25 g/d

In the case of CN(CC(=O)O)C(=N)N [creatine], the “performances over basal and no treatment group” value (after one month) is reported as “significant improvements of performances”, the “Bench press” value [1] is reported as 177 ± 34 kg and the “Squat Room.” value [1] is reported as 148.5 ± 31.2 kg. The “Watt/Kg max (maximal power productive performance on a braked bicycle ergometer)” value [1] was 9.8 ± 0.6 watt/kg max.
